Data taken from PubChem BioAssay AID2060506 (Molecular Pharmacology Branch, DTP, NCI, 2025).
Where “and” joins values, the source holds several entries; their conditions need not be identical. Equal values may be shown once. One block for each compound: values may come before it.

Test system: 598228-144-R-J1-PDC complex spheroid viability
Assay: Anticancer human tumor 598228-144-R-J1-PDC patient-derived serous endometrial adenocarcinoma cell line growth inhibition [GQUAD]
Details: for viability, T/C: stronger effect = lower value
Text: DNA G-quadruplex Stabilizer Agents in Combinations in Complex Spheroids
A high-throughput screen of multi-cell type tumor spheroids was designed to identify active combinations of DNA G-quadruplex stabilizer agents and targeted small molecules. Complex spheroids include a stromal component modeled by human endothelial cells (HUVEC) and fibroblasts modeled by human mesenchymal stem cells (MSCs). The concentration ranges selected for each drug and investigational agent were based upon clinically achievable concentrations if the clinical Cmax of the agent was known.
Compounds. The drugs and investigational agents: pidnarulex (CX-5461; NSC782164), APTO-253 (NSC789042), BRACO-19 (NSC847499), peposertib (NSC802822), ceralasertib (NSC780249), elimusertib (NSC800525), camonsertib (NSC841442), AZD-1390 (NSC803789), olaparib (NSC753686), talazoparib (NSC767125), ART-558 (NSC835418), sotorasib (NSC818433), MRTX-1133 (NSC836407), SN-38 (NSC673596), topotecan (NSC609699), etoposide (NSC141540), doxorubicin (NSC123127), gemcitabine (NSC613327), 5-fluorouracil (NSC19893), paclitaxel (NSC125973), vemurafenib (NSC761431), panobinostat (NSC761190), R-306465 (JNJ-16241199; NSC773264), adavosertib (NSC754352), TP-3654 (NSC805149), carboplatin (NSC241240), KSQ-4279 (NSC840948), and staurosporine (NSC755774) were obtained from the National Cancer Institute (NCI) Developmental Therapeutics Program Chemical Repository (34). The FDA-approved anticancer drug set is available from the NCI Developmental Therapeutics Program. […] The stock solutions were prepared in dimethyl sulfoxide (DMSO, Sigma-Aldrich, St. Louis, MO, cat. D2650) at 800-fold the tested concentration and stored at -70 degrees C prior to their use. All drugs and investigational agents were tested over a range starting from a high concentration at or near the clinical Cmax and decreasing in half-log increments. If the clinical Cmax for an agent had not been determined, the highest concentration tested was 10 microM.
2.3 Cell Culture. All cells were maintained in an incubator at 37 degrees C and 5% CO2 with 95% humidity. The PDC lines were cultured according to standard operating procedures established by the NCI PDMR. All PDCs were thawed and cultured in Matrigel-coated flasks prepared with a working solution of 1X Ham's F-12 nutrient mix, without supplementation (Invitrogen, cat. 11765054), 100 U/mL penicillin-streptomycin (Invitrogen, cat. 15140122), and 2.5% Matrigel (Corning Inc., cat. 354248) for the first three passages. The 857933-349-R-J2-PDC line was cultured in 6C/Colon 1B media, which includes advanced DMEM/F-12 (Thermo Fisher Scientific, cat. 12634028), 10 mM HEPES (Thermo Fisher Scientific, cat. 15630080), 1X GlutaMAX supplement (Thermo Fisher Scientific, cat. 35050061), 0.1 mg/mL primocin (InvivoGen, cat. ant-pm-2), 10% defined fetal bovine serum, heat inactivated (HyClone Laboratories Inc., cat. SH30070.03HI), 50% L-WRN conditioned media (ATCC, cat. CRL-3276), 1.25 mM N-Acetyl-L-cysteine (Sigma-Aldrich, cat. A9165), 10 mM nicotinamide (Sigma-Aldrich, cat. N0636), 1X B-27 supplement (Thermo Fisher Scientific, cat. 17504044), 1X N-2 supplement (Thermo Fisher Scientific, cat. 17502048), 10 microM Y-27632 dihydrochloride (Tocris Bioscience, cat. 1254), and 50 ng/mL human EGF recombinant protein (Thermo Fisher Scientific, cat. PHG0311). The 485176-168-R4-J1-PDC line was cultured in Panc media, which includes all 6C/Colon 1B media components plus 100 ng/mL human FGF-10 (Thermo Fisher Scientific, cat. 100-26), 500 nM SB-431542 (Selleckchem, cat. S1067), and gastrin (Tocris, cat. 3006).
[…]
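Note: spheroids exposed to the agents for one week before reading.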
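Throughout, for viability, T/C: percent of vehicle DMSO control viability so 100% = untreated growth.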

IC50 (curve of compound): > 10000 nM
SMILES: COc1ncnc(C2CC2)c1-c1ncc2cnn(Cc3ccc(-c4nc(C(F)(F)F)cn4C(C)C)cc3)c2n1
viability, T/C (compound 0.0316 µM): 112% and 120% and 109% | viability, T/C (compound 0.1 µM): 99.5% and 93.3% and 79.8% | viability, T/C (compound 0.316 µM): 107% and 103% and 102% | viability, T/C (compound 1 µM): 106% and 104% and 102% | viability, T/C (compound 3.16 µM): 97.8% and 112% and 113% | viability, T/C (compound 10 µM): 105% and 117% and 89%

IC50 (curve of compound): > 316 nM and 305 nM
SMILES: CC[C@@]1(O)C(=O)OCc2c1cc1n(c2=O)Cc2cc3c(CN(C)C)c(O)ccc3nc2-1
viability, T/C (compound 0.000999 µM): 116% and 95.5% and 102% | viability, T/C (compound 0.00316 µM): 96.2% and 89.7% and 95.8% | viability, T/C (compound 0.00999 µM): 128% and 70.9% and 96.4% | viability, T/C (compound 0.0316 µM): 94.6% and 72% and 86.3% | viability, T/C (compound 0.0999 µM): 68.6% and 55% and 64.9% | viability, T/C (compound 0.316 µM): 68.7% and 50.2% and 51.1%

IC50 (curve of first compound, second compound 0.0316 µM): 807 nM | IC50 (curve of first compound, second compound 0.1 µM): 745 nM | IC50 (curve of first compound, second compound 0.316 µM): 779 nM | IC50 (curve of first compound, second compound 1 µM): 529 nM | IC50 (curve of first compound, second compound 3.16 µM): 335 nM | IC50 (curve of first compound, second compound 10 µM): < 31.6 nM
SMILES: COc1cccc2c1C(=O)c1c(O)c3c(c(O)c1C2=O)CC(O)(C(=O)CO)CC3OC1CC(N)C(O)C(C)O1 (stereo not drawn) + Cc1cnc(CNC(=O)c2c(=O)c3ccc(N4CCCN(C)CC4)nc3n3c2sc2ccccc23)cn1
viability, T/C (second compound 0.0316 µM, first compound 0.0316 µM): 90.4% | viability, T/C (second compound 0.0316 µM, first compound 0.1 µM): 73.9% | viability, T/C (second compound 0.0316 µM, first compound 0.316 µM): 79.3% | viability, T/C (second compound 0.0316 µM, first compound 1 µM): 43.3% | viability, T/C (second compound 0.0316 µM, first compound 3.16 µM): 0.82% | viability, T/C (second compound 0.0316 µM, first compound 10 µM): 0.57% | viability, T/C (second compound 0.1 µM, first compound 0.0316 µM): 80.8% | viability, T/C (second compound 0.1 µM, first compound 0.1 µM): 56.7% | viability, T/C (second compound 0.1 µM, first compound 0.316 µM): 77.8% | viability, T/C (second compound 0.1 µM, first compound 1 µM): 42.5% | viability, T/C (second compound 0.1 µM, first compound 3.16 µM): 1.19% | viability, T/C (second compound 0.1 µM, first compound 10 µM): 0.85% | viability, T/C (second compound 0.316 µM, first compound 0.0316 µM): 69.1% | viability, T/C (second compound 0.316 µM, first compound 0.1 µM): 64.6% | viability, T/C (second compound 0.316 µM, first compound 0.316 µM): 80.3% | viability, T/C (second compound 0.316 µM, first compound 1 µM): 44.1% | viability, T/C (second compound 0.316 µM, first compound 3.16 µM): 0.37% | viability, T/C (second compound 0.316 µM, first compound 10 µM): 0.24% | viability, T/C (second compound 1 µM, first compound 0.0316 µM): 63.1% | viability, T/C (second compound 1 µM, first compound 0.1 µM): 67.6% | viability, T/C (second compound 1 µM, first compound 0.316 µM): 82.9% | viability, T/C (second compound 1 µM, first compound 1 µM): 23.8% | viability, T/C (second compound 1 µM, first compound 3.16 µM): 0.6% | viability, T/C (second compound 1 µM, first compound 10 µM): 0.4% | viability, T/C (second compound 3.16 µM, first compound 0.0316 µM): 44.3% | viability, T/C (second compound 3.16 µM, first compound 0.1 µM): 61.6% | viability, T/C (second compound 3.16 µM, first compound 0.316 µM): 52.7% | viability, T/C (second compound 3.16 µM, first compound 1 µM): 0.52% | viability, T/C (second compound 3.16 µM, first compound 3.16 µM): 0.72% | viability, T/C (second compound 3.16 µM, first compound 10 µM): 0.28% | viability, T/C (second compound 10 µM, first compound 0.0316 µM): 45.2% | viability, T/C (second compound 10 µM, first compound 0.1 µM): 43.8% | viability, T/C (second compound 10 µM, first compound 0.316 µM): 20.7% | viability, T/C (second compound 10 µM, first compound 1 µM): 0.36% | viability, T/C (second compound 10 µM, first compound 3.16 µM): 0.41% | viability, T/C (second compound 10 µM, first compound 10 µM): 0.29%

IC50 (curve of compound): 2200 nM and 1870 nM and 1730 nM
SMILES: CC(C)(O)C1CCC(Nc2ccc3ncc(-c4cccc(C(F)(F)F)c4)n3n2)CC1 (stereo not drawn)
viability, T/C (compound 0.0316 µM): 112% and 97.2% and 85.6% | viability, T/C (compound 0.1 µM): 104% and 82.3% and 99.3% | viability, T/C (compound 0.316 µM): 99.6% and 94.8% and 96.7% | viability, T/C (compound 1 µM): 94% and 78.5% and 75.3% | viability, T/C (compound 3.16 µM): 28% and 26.1% and 20.6% | viability, T/C (compound 10 µM): 31.7% and 25.3% and 24.3%
